Reference: patent publication US11952338B2, “Anticonvulsant compounds” (OWEN-BARRY PHARMACEUTICALS INC., priority 2017, dated 2024)

Columns and labels:
[1] = detection in rat blood after oral or intravenous administration of Example 1; format: in vivo; details: for detection in blood: rats dosed with Example 1 orally or by vein injection, over 24 hours
Procedure: FIG. 7 is a graph showing the detection of the compounds of Example 1 and Example 2 in rat blood after oral or intravenous administration of the compound of Example 1.
FIG. 8 is a graph showing the time it takes for the compound of Example 1 to be converted in vivo to the compound of Example 2.
All rats were dosed with the compound of Example 1 either orally or by vein injection.

[2] = stability in human plasma; format: in vitro ADME; details: human plasma dosed with Example 1
From the text: FIG. 9 is a graph showing the stability of the compound of Example 2 in human plasma once converted from the compound of Example 1.

[3] = test system: isolated rat brain slices; test: voltage sensitive dye imaging of electrically stimulated brain slices; format: cell-based
Procedure: The compounds described in the above examples display activity in in vitro and in vivo assays that track brain electrical activity. A first assay is conducted using voltage sensitive dye imaging. This is done on isolated rat brain slices kept viable in artificial cerebral spinal fluid (ACSF). Electrically stimulating the slice activates the neural assemblies therein. A voltage sensitive dye, such as, di-4-ANEPPS, is incubated with a brain slice for 1 hour in a suitable solution that enhances the dye penetration into the tissue. The dye reacts to changes in voltage across the cell membrane of the neurons in the brain slice. The example compounds are added to the ACSF at known concentration between 50 and 200 nM. The brain slices are then subjected to an electrical stimulus that activates the neurons in the slice. As the dye reacts to the change in voltage, which can be observed and quantified, the degree to which activation of the brain is dampened by the presence of the example compound is evaluated.

[4] = test system: voltage-gated sodium channels; test: patch clamp electrophysiology on cultured cortical neurons; format: cell-based, rat; details: 100 μM
Procedure: In another assay, the inhibition by the example compounds on the activity of voltage-gated sodium channels is determined using patch clamp electrophysiology. This analysis is done on cultured cortical neurons isolated from rats. […] This was done by assessing the suppression of the voltage gated sodium channel activity 16 ms after a test pulse.
Under control conditions, recovery occurs at a rate of about 13 ms. In the presence of 100 μM of the compound of Example 1, recovery is slowed to a rate of about 26 ms, and recovery is substantially complete after about 50 ms. […] This is a desirable property for antiseizure compounds, as little or no block of normal function occurs, while reducing (epileptic) activity that occurs at high frequency.

[5] = test system: rodent kindling model of epilepsy (partial complex seizures); test: amygdala kindling model of epilepsy; format: in vivo, rat; details: 20 mg/kg
Procedure: FIG. 4 is a summary of data showing the prevention, by the compound of Example 1 at a dose of 20 mg/kg, of stage 5 seizures in an animal model of partial complex seizures, using the amygdala kindling model of epilepsy. FIG. 5 is a graph showing that the pre-treatment of rats (20 mg/kg) undergoing the amygdala kindling procedure prevents the development of stage 5 seizures. […] This model produces partial complex seizures that are similar to temporal lobe seizures experienced by humans. […] Therefore, compounds according to the present invention, including preferably the compound of Example 1, may be used in prophylactic treatment or prevention of epileptogenesis.

[6] = test system: rodent model of traumatic brain injury/stress; test: rodent model of traumatic brain injury/stress; format: in vivo, rat
From the text: FIG. 6 is an electrographic record of activity from the amygdala of a rat which has undergone traumatic brain injury and has been stressed (tail pinch). […] After moderate traumatic brain injury under control conditions, stress induces epileptiform activity in the amygdala. This activity is shown on the left in FIG. 6, where a stressor induces increased activity. […] On the right in FIG. 6, it is evident that the compound of Example 1 prevents the induction of this response and is particularly effective in reducing high frequency activity (i.e. >250 Hz) that is considered to be epileptogenic. This electrophysiological response in the control traumatic brain injury rats was accompanied by stage 2 to 3 seizures (Racine scale: av. 2.0±0.5 n=6 rats). These behavioral responses were blocked in the traumatic brain injury rats treated with the compound of Example 1.

Row | time course of conversion of Example 1 to Example 2 ([1]; rats dosed with 20 mg/kg of Example 1) | Compound | detection in blood [1] | stability in human plasma [2] | effect on amplitude and duration of the response [3] | suppression of activation of the brain slice activity ([3]; 50 nM) [%] | suppression of activation of the brain slice activity ([3]; 200 nM) [%] | reduction of activity ([3]; 60 pulses/second) [%] | activity at low stimulation frequency ([3]; stimulation frequency of 20 pulses/second) | recovery from inactivation [4] [%] | time after which recovery is substantially complete [4] | rate of recovery of sodium channel inactivation ([4]; control about 13 ms) | stage 5 seizures ([5]; oral administration) | development of epileptic seizures ([5]; prior prophylactic dosing) | induction of seizure (epileptiform) activity in the amygdala by stress ([6]; after moderate traumatic brain injury, tail pinch) | behavioral responses (stage 2 to 3 seizures, Racine scale) ([6]; traumatic brain injury rats)
1 |  | CC1(C)CC(=O)C=C(c2ccc(C(=O)O)cc2)C1 [Example 2, 3′,3′-Dimethyl-5′-oxo-2′,3′,4′,5′-tetrahydro-[1,1′-biphenyl]-4-carboxylic acid] | the only molecule detected in significant quantities | stable and is not further converted to another molecule |  |  |  |  |  |  |  |  |  |  |  | 
2 | substantially complete within one hour | COC(=O)c1ccc(C2=CC(=O)CC(C)(C)C2)cc1 [Example 1, Methyl 3′,3′-dimethyl-5′-oxo-2′,3′,4′,5′-tetrahydro-[1,1′-biphenyl]-4-carboxylate] | only detectable as the free acid |  | reduced both amplitude and duration of the response | 29±5 | 48±5 | 48 | little or no activity | 100 | about 50 ms | about 26 ms | prevents stage 5 seizures from occurring | prevents the onset of seizures | prevents the induction of seizure activity | blocked
